According to US11098057B2, “9,10,11,12-tetrahydro-8H-[1,4]diazepino[5′,6′:4,5]thieno[3,2-F]quinolin-8-one compounds and uses thereof” (Celgene CAR LLC, priority 2017, dated 2021):

System: phosphorylation of Hsp27 (Ser78) in Thp-1 human acute monocytic leukemia cells
Assay: MK2 cellular assay, detection of total and phospho-Hsp27 (Serine 78) by MSD ELISA (Thp1)
Type: cell-based
Settings: Thp-1 cells, 1 hour compound, then 50 ng/mL LPS for 45 minutes, read-out: pHSP27 signaling EC50
Protocol: MK2 Cellular Assay—Detection of Total and Phospho-Hsp27 (Serine 78) by MSD ELISA (Thp1)
Compounds of the invention can be assayed in Thp-1 human acute monocytic leukemia cells to measure inhibition of MK2 activity according to procedures detailed in the '463 application.
Specifically, Thp-1 cells were grown in culture medium containing RPMI/10% FBS (fetal bovine serum)/0.05 mM 2-mercaptoethanol. 72 hours prior to the assay, 8×10^4 cells per well were plated in a 96 well flat bottom plate along with 10 ng/mL phorbol 12-myristate 13-acetate (PMA). Cells were cultured in an incubator at 37° C. until needed for the assay. Cell plate media was replaced with culture media just prior to assay while compound dilutions were being made.
Stock solutions of test compound, 1 mM in DMSO, were prepared. […]
The MULTI-SPOT Phospho(Ser78)/Total HSP27 ELISA Assay kit was purchased from Meso Scale […] (MSD; catalog #K15128D). […] 150 μl/well 1×MSD read buffer was added (4× read buffer supplied with kit) and the plate was analyzed on the MSD SECTOR®Imager for analysis. The SECTOR®Imager measures intensity of emitted light to provide a quantitative measure of phosphorylated HSP27 (Ser78) and total HSP27 present in the sample. The relative percent phosphoprotein in a sample is calculated by dividing the Phospho-HSP27 signal intensity over the total HSP27 signal intensity measured in each well.

CCOCc1cnc(Cl)nc1Oc1ccc2c(ccc3sc4c(c32)NC[C@H](C)NC4=O)n1 [Compound I-82]
EC50: 101 to 500 nM
